Experimental data from patent publication US11440898B2, “Isoquinoline compounds, methods for their preparation, and therapeutic uses thereof in conditions associated with the alteration of the activity of beta galactosidase” (Minoryx Therapeutics S.L., priority 2016, dated 2022).

Target: T1, mutated beta-galactosidase (p.R60H canine GLB1) in GM11473 fibroblasts (Canis lupus familiaris, UniProt Q9TRY9, R60H)
T1 construct: host or cells: GM11473 canine GM1 gangliosidosis fibroblasts
T1 sequence (Q9TRY9 30-668 R60H): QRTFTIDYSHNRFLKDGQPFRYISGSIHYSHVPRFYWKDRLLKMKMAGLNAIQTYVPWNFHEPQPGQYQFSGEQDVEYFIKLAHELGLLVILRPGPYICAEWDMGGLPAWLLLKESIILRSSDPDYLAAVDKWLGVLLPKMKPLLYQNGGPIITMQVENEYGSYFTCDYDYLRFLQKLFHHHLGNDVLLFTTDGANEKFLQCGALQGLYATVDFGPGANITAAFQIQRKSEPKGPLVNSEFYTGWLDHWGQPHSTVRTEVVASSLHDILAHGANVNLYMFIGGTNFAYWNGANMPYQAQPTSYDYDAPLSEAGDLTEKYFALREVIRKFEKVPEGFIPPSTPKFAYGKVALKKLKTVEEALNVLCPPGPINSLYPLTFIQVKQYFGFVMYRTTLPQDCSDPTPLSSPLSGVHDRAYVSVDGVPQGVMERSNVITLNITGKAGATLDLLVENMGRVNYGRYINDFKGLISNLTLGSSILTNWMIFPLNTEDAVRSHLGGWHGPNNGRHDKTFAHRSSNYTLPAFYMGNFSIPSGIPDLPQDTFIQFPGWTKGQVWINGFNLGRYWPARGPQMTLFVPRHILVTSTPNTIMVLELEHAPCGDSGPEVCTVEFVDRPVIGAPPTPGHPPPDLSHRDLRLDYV
Experiment: Enhancement of β-galactosidase activity measured in GM1 fibroblasts (GM11473), 4-MU-β-D-galactopyranoside substrate
Type: cell-based
Set-up: key: Increase in comparison with non-treated of >2.5 fold is shown as A; Increase in comparison with non-treated of >1.7-2.5 fold is shown as B; Increase in comparison with non-treated of 1.2-1.7 fold is shown as C; D means that no increase compared with non-treated cells was detected in this method
Conditions: increase in β-galactosidase enzyme activity vs non-treated cells, concentrations between 6 and 50 μM, 4 days incubation
Experimental: The capacity of the Compounds of the Disclosure to enhance mutated beta-galactosidase activity levels in GM1 fibroblasts was assayed as follows.
Fibroblasts homozygous for a GM1 gangliosidosis missense mutation (GM11473) (canine fibroblasts homozygous for the GM1 gangliosidosis missense mutation p.R60H equivalent to human p.R59H mutation) were purchased from Coriell Institute for Medical Research (Camden, N.J., USA).
Fibroblasts were seeded at 4×10^4 cells per well in 12-well cell culture plates in Dulbecco's Modified Eagle's Media (DMEM) supplemented with 10% of fetal bovine serum (FBS), 1% penicillin/streptomycin (P/S) (Thermo Fisher Scientific, Waltham, Mass., USA) and incubated at 37° C., 5% CO2 overnight for cell attachment. Subsequently, cells were incubated in the absence or presence of the compounds at the desired concentration for 4 days. After incubation, cells were washed twice with phosphate-buffered saline (“PBS”) and detached using Trypsin-EDTA solution (Sigma Aldrich, St. Louis, Mo., USA) to prepare cell pellets. The pellets were stored at −80° C. until activity assays were performed.
β-Galactosidase activity in cell lysates was measured by using 4-Methylumbelliferyl-β-D-galactopyranoside substrate (Sigma Aldrich, St. Louis, Mo., USA). Briefly, lysates were resuspended in 200 μL of 0.9% NaCl containing 0.01% triton X-100 lysis buffer to promote membrane disruption. The cell suspension was sonicated and centrifuged to remove insoluble materials. Then, lysates were mixed with 4-MU-β-D-galactopyranoside in 100 mM citrate buffer (pH=4) and 100 mM NaCl for 60 min at 37° C. The reaction was terminated by adding 100 mM glycine-NaOH buffer (pH=10.7). The liberated 4-MU was measured on a GloMax Discover plate reader (Promega, Madison, Wis., USA) with excitation at 340 nm and emission at 460 nm. Protein quantification was determined using Pierce BCA Protein Assay Kit (Thermo Fisher Scientific, Waltham, Mass., USA). Measurements were interpolated in a 4-MU standard curve and normalized by protein quantity. Enzyme activities were expressed in treated cells as X-fold increase in comparison with non-treated cells (X=1 represents no enhancement).
The capacity of the Compounds of the Disclosure to produce an increase in β-galactosidase enzyme activity in canine GM1 fibroblasts bearing p.R60H canine GLB1 mutation at concentrations between 6 and 50 μM is denoted as follows: • Increase in comparison with non-treated of >2.5 fold is shown as A. • Increase in comparison with non-treated of >1.7-2.5 fold is shown as B. • Increase in comparison with non-treated of 1.2-1.7 fold is shown as C. • D means that no increase compared with non-treated cells was detected in this method. • ND means “not determined.”

Compound	Activity in GM11473 fibroblasts
COc1ccc2ccnc(Nc3ccc(C(=O)NC4CCc5ccccc5C4)nc3)c2c1 (stereo not shown) [Example 45, 5-((7-Methoxyisoquinolin-1-yl)amino)-N-(1,2,3,4-tetrahydronaphthalen-2-yl)picolinamide]	C (Increase in comparison with non-treated of 1.2-1.7 fold is shown as C)
O=C(NCc1ccc2c(c1)CCCO2)c1ccc(Nc2nccc3ccc(Cl)cc23)cn1 [Example 39, 5-((7-Chloroisoquinolin-1-yl)amino)-N-(chroman-6-ylmethyl)picolinamide]	B (Increase in comparison with non-treated of >1.7-2.5 fold is shown as B)
COc1cccc(CNC(=O)c2ccc(Nc3nccc4ccc(Cl)cc34)cn2)c1 [Example 31, 5-((7-Chloroisoquinolin-1-yl)amino)-N-(3-methoxybenzyl)picolinamide]	B (Increase in comparison with non-treated of >1.7-2.5 fold is shown as B)
COc1ccc(CNC(=O)c2cc(Nc3nccc4ccc(Cl)cc34)ccn2)cc1OC [Example 12, 4-((7-Chloroisoquinolin-1-yl)amino)-N-(3,4-dimethoxybenzyl)picolinamide]	C (Increase in comparison with non-treated of 1.2-1.7 fold is shown as C)
COc1ccc(CNC(=O)c2ccc(Nc3nccc4ccc(Cl)cc34)nc2)cc1 [Example 56, 6-((7-Chloroisoquinolin-1-yl)amino)-N-(4-methoxybenzyl)nicotinamide]	D
COc1ccc2ccnc(Nc3ccnc(C(=O)NCc4ccccc4)c3)c2c1 [Example 26, N-benzyl-4-((7-methoxyisoquinolin-1-yl)amino)picolinamide]	C (Increase in comparison with non-treated of 1.2-1.7 fold is shown as C)
COc1ccc2c(c1)CCC(NC(=O)c1ccc(Nc3nccc4ccc(Cl)cc34)cn1)C2 (stereo not shown) [Example 40, 5-((7-Chloroisoquinolin-1-yl)amino)-N-(6-methoxy-1,2,3,4-tetrahydronaphthalen-2-yl)picolinamide]	B (Increase in comparison with non-treated of >1.7-2.5 fold is shown as B)
COc1ccc(CNC(=O)c2cc(Nc3nccc4ccc(Cl)cc34)ccn2)cc1 [Example 10, 4-((7-Chloroisoquinolin-1-yl)amino)-N-(4-methoxybenzyl)picolinamide]	D
O=C(NCc1ccc2c(c1)OCCO2)c1cc(Nc2nccc3ccc(Cl)cc23)ccn1 [Example 8, 4-((7-Chloroisoquinolin-1-yl)amino)-N-((2,3-dihydrobenzo[b][1,4]dioxin-6-yl)methyl)picolinamide]	B (Increase in comparison with non-treated of >1.7-2.5 fold is shown as B)
O=C(NCc1ccc2nsnc2c1)c1cc(Nc2nccc3ccc(Cl)cc23)ccn1 [Example 13, N-(benzo[c][1,2,5]thiadiazol-5-ylmethyl)-4-((7-chloroisoquinolin-1-yl)amino)picolinamide]	D
O=C(NCC1CCc2ccccc2C1)c1cc(Nc2nccc3ccc(Cl)cc23)ccn1 (stereo not shown) [Example 20, 4-((7-Chloroisoquinolin-1-yl)amino)-N-((1,2,3,4-tetrahydronaphthalen-2-yl)methyl)picolinamide]	B (Increase in comparison with non-treated of >1.7-2.5 fold is shown as B)
O=C(NCC(c1ccccn1)N1CCOCC1)c1cccc(Nc2nccc3ccc(Cl)cc23)c1 (stereo not shown) [Example 2, 3-((7-Chloroisoquinolin-1-yl)amino)-N-(2-morpholino-2-(pyridin-2-yl)ethyl)benzamide]	C (Increase in comparison with non-treated of 1.2-1.7 fold is shown as C)
O=C(NCc1ccccc1)c1cc(Nc2nccc3ccc(Cl)cc23)ccn1 [Example 9, N-benzyl-4-((7-chloroisoquinolin-1-yl)amino)picolinamide]	B (Increase in comparison with non-treated of >1.7-2.5 fold is shown as B)
O=C(NCCc1ccc2c(c1)OCCO2)c1cc(Nc2nccc3ccc(Cl)cc23)ccn1 [Example 18, 4-((7-Chloroisoquinolin-1-yl)amino)-N-(2-(2,3-dihydrobenzo[b][1,4]dioxin-6-yl)ethyl)picolinamide]	C (Increase in comparison with non-treated of 1.2-1.7 fold is shown as C)
O=C(NCc1ccc2c(c1)CCO2)c1ccc(Nc2nccc3ccc(Cl)cc23)cn1 [Example 36, 5-((7-Chloroisoquinolin-1-yl)amino)-N-((2,3-dihydrobenzofuran-5-yl)methyl)picolinamide]	C (Increase in comparison with non-treated of 1.2-1.7 fold is shown as C)
COc1ccc2ccnc(Nc3ccc(C(=O)NCC4CCc5ccccc5C4)nc3)c2c1 (stereo not shown) [Example 47, 5-((7-Methoxyisoquinolin-1-yl)amino)-N-((1,2,3,4-tetrahydronaphthalen-2-yl)methyl)picolinamide]	B (Increase in comparison with non-treated of >1.7-2.5 fold is shown as B)
COc1ccc(CNC(=O)c2ccc(Nc3nccc4ccc(Cl)cc34)cn2)cc1OC [Example 32, 5-((7-Chloroisoquinolin-1-yl)amino)-N-(3,4-dimethoxybenzyl)picolinamide]	C (Increase in comparison with non-treated of 1.2-1.7 fold is shown as C)
O=S(=O)(NCC(c1cccnc1)N1CCCC1)c1cccc(Nc2nccc3ccc(Cl)cc23)c1 (stereo not shown) [Example 65, 3-((7-Chloroisoquinolin-1-yl)amino)-N-(2-(pyridin-3-yl)-2-(pyrrolidin-1-yl)ethyl)benzenesulfonamide]	C (Increase in comparison with non-treated of 1.2-1.7 fold is shown as C)
Cn1nnc2cc(NC(=O)c3cccc(Nc4nccc5ccc(Cl)cc45)c3)ccc21 [Example 1, 3-((7-Chloroisoquinolin-1-yl)amino)-N-(1-methyl-1H-benzo[d][1,2,3]triazol-5-yl)benzamide]	C (Increase in comparison with non-treated of 1.2-1.7 fold is shown as C)
O=C(NCCc1ccc2c(c1)OCCO2)c1ccc(Nc2nccc3ccc(Cl)cc23)cn1 [Example 38, 5-((7-Chloroisoquinolin-1-yl)amino)-N-(2-(2,3-dihydrobenzo[b][1,4]dioxin-6-yl)ethyl)picolinamide]	D
O=C(NCc1ccccc1)c1ccc(Nc2nccc3ccc(Cl)cc23)nc1 [Example 55, N-benzyl-6-((7-chloroisoquinolin-1-yl)amino)nicotinamide]	C (Increase in comparison with non-treated of 1.2-1.7 fold is shown as C)
O=C(NCc1ccc2c(c1)OCCO2)c1ccc(Nc2nccc3ccc(Cl)cc23)cc1 [Example 5, 4-((7-Chloroisoquinolin-1-yl)amino)-N-((2,3-dihydrobenzo[b][1,4]dioxin-6-yl)methyl)benzamide]	B (Increase in comparison with non-treated of >1.7-2.5 fold is shown as B)
